Source: paper PMC12019328, “Discovery of an ApoE4-targeted small-molecule SirT1 enhancer for the treatment of Alzheimer’s disease” (Scientific Reports, 2025)
Converted amounts (≈) assume the structure as drawn. “And” between values parts separate entries of the source, which are not always exact repeats. Equal values may be shown once.

Experiments:
[1] = Kinetic solubility; format: physicochemical; settings: aqueous buffer, kinetic from dmso stock, PBS pH 7.4, 37°C
Experimental: supernatants were transferred to new tubes and lyophilized. Samples were reconstituted in 100 µL of 50/50/0.1 (Water/Acetonitrile/Formic Acid) prior to analysis via liquid chromatography-tandem mass spectrometry (LC-MS/MS).
Normalized chromatographic peak areas was plotted at each time point and the half-life (T1/2) of compound in liver microsomes was determined by using the trendline equation to calculate the time at which compound abundance was 50% of that at timepoint 0 (T0).
Kinetic solubility was assessed by separately diluting a test compound solution (10 mM, 100% DMSO) into the aqueous buffer (PBS pH 7.4) and DMSO at 100 μM, 100 μL total volume.
The solutions were then incubated at 37°C for 90 min and centrifuged (16000xg, 5 min). An aliquot (50 µL) of each supernatant was analyzed by LC-MS/MS.
Five standard concentrations (100, 10, 1, 0.1, and 0, DMSO) in duplicates were incubated at 37°C for 90 min and centrifuged (16000xg, 5 min). Aliquots (50 µL) of supernatant were analyzed by LC-MS/MS to create the standard curve.
Table S2. DDL-218 Physiochemical Properties
Kinetic solubility (μM) 64.4
Brain Tissue Binding [fu,bound (%)] 43 […]

[2] = In vivo pharmacokinetic analysis, brain levels after oral gavage; set-up: species or system C57BL/6J mice; settings: single time point one hour, oral gavage 30 mg/Kg, n = 1; 30 mg/kg
Experimental: […] One hour later, mice were euthanized by pentobarbital over-anesthesia and trans-cardial collection of blood for isolation of plasma by centrifugation at 10,000 x g for 10 min at 4 °C. Brain tissue was collected for analysis, frozen on dry ice and stored at -80 °C before analysis.
For LC/MS/MS analysis, tissue samples were homogenized in a bead beater using 5 volumes of ice-cold 80% acetonitrile (1/5; mg of tissue/ µL of 80% ACN). Solutions were clarified by centrifugation (16,000 x g, 5 min) and the supernatants were transferred to new tubes and lyophilized. Samples were reconstituted in 100 µL of 50/50/0.1 (water/acetonitrile/formic acid) before analysis via liquid chromatography-tandem mass spectrometry.
A 6460 triple quadrupole mass spectrometer (Agilent Technologies) coupled to a 1290 Infinity HPLC system (Agilent Technologies) with a Phenomenex analytical column (Kinetex 1.7 μm C18 100 Å 100 × 2.1 mm) was used for HPLC. The HPLC method utilized a mixture of solvent A (99.9/1 water/formic acid) and solvent B (99.9/1 acetonitrile/formic acid) and a gradient was used for the elution of the compounds (min/%B: 0/20, 3/20, 19/99, 20/99, 21/20, 30/20).
An internal standard (IS; Reserpine) was added to every sample to account for compound loss during sample processing. Standards were made in drug naïve brain and plasma with increasing amounts of DDL-214- (S1,S2: 0.1 pmol/ S3,S4: 1 pmol/ S5,S6: 10 pmol/ S7,S8: 100 pmol/ S9,S10: 1000 pmol). The standard curve was made by plotting the amount of each compound per standard vs. the ratio of measured chromatographic peak areas corresponding to DDL-214 (DDL-214 -/Reserpine). The trendline equation was then used to calculate the absolute concentrations of DDL-214/-218/-219 in brain tissue and plasma.

With CC(N)C(=O)OC(C)(C)Cc1ccncc1 (centres unmarked) [DDL-218] as the compound, how does the solubility kinetic at 90 min [1] read?
The solubility kinetic at 90 min was 64.4 µM (≈ 14.3 µg/mL).

What about the brain levels [2] of the same compound?
Its brain levels is ~ 8400 ng/g and 37.8 µM.
